Laboratory results: US20140031217A1, “HERBICIDAL COMPOSITIONS COMPRISING 4-AMINO-3-CHLORO-5-FLUORO-6-(4-CHLORO-2-FLUORO-3-METHOXYPHENYL)PYRIDINE-2-CARBOXYLIC ACID OR A DERIVATIVE THEREOF AND AUXIN TRANSPORT INHIBITORS” (DOW AGROSCIENCES LLC, priority 2012, published 2014)

Tests used:
ECHCG = test: In-water applied (paddy) greenhouse weed control, ECHCG; assay type: in vivo, Echinochloa crusgalli (L.) Beauv.
Experimental: (§1) Weed seeds or nutlets of the desired test plant species were planted in puddled soil (mud) prepared by mixing a shredded, non-sterilized mineral soil (50.5 percent silt, 25.5 percent clay, and 24 percent sand, with a pH of about 7.6 and an organic matter content of about 2.9 percent) and water at a 1:1 volumetric ratio. The prepared mud was dispensed in 365 mL aliquots into 16-ounce (oz.) non-perforated plastic pots with a surface area of 86.59 square centimeters (cm^2) leaving a headspace of 3 centimeters (cm) in each pot. Mud was allowed to dry overnight prior to planting or transplanting. Rice seeds were planted in Sun Gro MetroMix® 306 planting mixture, which typically has a pH of 6.0 to 6.8 and an organic matter content of about 30 percent, in plastic plug trays. Seedlings at the second or third leaf stage of growth were transplanted into 840 mL of mud contained in 32-oz. non-perforated plastic pots with a surface area of 86.59 cm^2 4 days prior to herbicide application. The paddy was created by filling the headspace of the pots with 2.5 to 3 cm of water. When required to ensure good germination and healthy plants, a fungicide treatment and/or other chemical or physical treatment was applied. The plants were grown for 4-22 days in a greenhouse with an approximate 14 h photoperiod which was maintained at about 29′C during the day and 26° C. during the night. Nutrients were added as Osmocote® (19:6:12, N:P:K+minor nutrients) at 2 g per 16-oz. pot and 4 g per 960-mL 32-oz. pot. Water was added on a regular basis to maintain the paddy flood, and supplemental lighting was provided with overhead metal halide 1000-Watt lamps as necessary. The plants were employed for testing when they reached the second or third true leaf stage.
(§2) Treatments consisted of the acid or esters of 4-amino-3-chloro-5-fluoro-6-(4-chloro-2-fluoro-3-methoxy-phenyl)pyridine-2-carboxylic acid (compound A) each formulated as an SC and various herbicidal components alone and in combination. Forms of compound A were applied on an acid equivalent basis.
(§3) Other herbicidal components were applied on an active ingredient basis and included auxin transport inhibiting (ATI) herbicides chlorflurenol-methyl (technical material), chlorflurenol (technical material), diflufenzopyr (technical material), dilfufenzopyr sodium (technical material), flurenol-methyl (technical material,) and naptalam (technical material).
(§4) Treatment requirements for each compound or herbicidal component were calculated based upon the rates being tested, the concentration of active ingredient or acid equivalent in the formulation, an application volume of 2 mL per component per pot, and an application area of 86.59 cm^2 per pot.
(§5) For formulated compounds, a measured amount was placed in an individual 100 or 200 mL glass vial and was dissolved in a volume of 1.25% (v/v) Agri-Dex® crop oil concentrate to obtain application solutions.
(§6) For technical grade compounds, a weighed amount was placed in an individual 100 to 200 mL glass vial and was dissolved in a volume of acetone to obtain concentrated stock solutions. […] The concentrated stock solutions obtained were diluted with an equivalent volume of an aqueous mixture containing 2.5% (v/v) crop oil concentrate so that the final application solutions contained 1.25% (v/v) crop oil concentrate.
(§7) Applications were made by injecting with a pipetter appropriate amounts of the application solutions, individually and sequentially, into the aqueous layer of the paddy. Control plants were treated in the same manner with the solvent blank. Applications were made so that all treated plant material received the same concentrations of acetone and crop oil concentrate.
(§8) The treated plants and control plants were placed in a greenhouse as described above and water was added as needed to maintain a paddy flood. […]

ECHOR = test: In-water applied (paddy) greenhouse weed control, ECHOR; assay type: in vivo, Echinochloa oryzoides (Ard.) Fritsch; settings: 22 DAA, 550 gai/ha
Experimental: as §1, §2, §3, §4, §5, §6, §7, §8

SCPMA = test: In-water applied (paddy) greenhouse weed control, SCPMA; assay type: in vivo; settings: 22 DAA
Experimental: as §1, §2, §3, §4, §5, §6, §7, §8

CYPRO = test: In-water applied (paddy) greenhouse weed control, CYPRO; assay type: in vivo, Cyperus rotundus L.; settings: 19 DAA
Experimental: as §1, §2, §3, §4, §5, §6, §7, §8

FIMMI = test: In-water applied (paddy) greenhouse weed control, FIMMI; assay type: in vivo, Fimbristylis miliacea (L.) Vahl; settings: 19 DAA
Experimental: as §1, §2, §3, §4, §5, §6, §7, §8

BRAPP = test: Postemergence foliar-applied greenhouse weed control, BRAPP; assay type: in vivo, Brachiaria platyphylla (Griseb.) Nash; settings: 21 DAA
Description: (§9) Seeds or nutlets of the desired test plant species were planted in a soil matrix prepared by mixing a loam or sandy loam soil (e.g., 28.6 percent silt, 18.8 percent clay, and 52.6 percent sand, with a pH of about 5.8 and an organic matter content of about 1.8 percent) and calcareous grit in an 80 to 20 ratio. The soil matrix was contained in plastic pots with a volume of 1 quart and a surface area of 83.6 square centimeters (cm^2). When required to ensure good germination and healthy plants, a fungicide treatment and/or other chemical or physical treatment was applied. The plants were grown for 8-22 days in a greenhouse with an approximate 14 h photoperiod which was maintained at about 29° C. during the day and 26° C. during the night. Nutrients (Peters Excel® 15-5-15 5-Ca 2-Mg and iron chelate) were applied in the irrigation solution as needed and water was added on a regular basis. Supplemental lighting was provided with overhead metal halide 1000-Watt lamps as necessary. The plants were employed for testing when they reached the first through fourth true leaf stage.
(§10) Treatments consisted of the acid or esters of 4-amino-3-chloro-5-fluoro-6-(4-chloro-2-fluoro-3-methoxy-phenyl) pyridine-2-carboxylic acid (Compound A), each formulated as an SC (suspension concentrate), and various herbicidal components alone and in combination. Forms of compound A were applied on an acid equivalent basis.
as §3, with “chlorflurenol” for “chlorflurenol-methyl”, “chlorflurenol-methyl” for “chlorflurenol”, “diflufenzopyr” for “dilfufenzopyr”, “material)” for “material,)”
(§11) Treatment requirements were calculated based upon the rates being tested, the concentration of active ingredient or acid equivalent in the formulation, and a 12 mL application volume at a rate of 187 L/ha.
(§12) For treatments comprised of formulated and technical compounds, weighed amounts of the technical materials were placed individually in 25 mL glass vials and dissolved in a volume of 97:3 v/v acetone/DMSO to obtain 12× stock solutions, and measured amounts of the formulated compounds were placed individually in 25 mL glass vials and diluted in a volume of 1.5% (v/v) crop oil concentrate or water to obtain 12× stock solutions. […] Application solutions were prepared by adding an appropriate amount of each stock solution (e.g., 1 mL) and diluted to the appropriate final concentrations with the addition of an appropriate amount of an aqueous mixture of 1.5% (v/v) crop oil concentrate so that the final spray solutions contained 1.25% (v/v) crop oil concentrate. When required, additional water and/or 97:3 v/v acetone/DMSO was added to individual application solutions so that the final acetone and DMSO concentrations of the application solutions being compared were 8.1% and 0.25%, respectively.
(§13) All stock solutions and applications solutions were visually inspected for compound compatibility prior to application. Spray solutions were applied to the plant material with an overhead Mandel track sprayer equipped with an 8002E nozzle calibrated to deliver 187 L/ha over an application area of 0.503 m^2 at a spray height of 18 to 20 inches (46 to 50 cm) above average plant canopy height. Control plants were sprayed in the same manner with the solvent blank.
(§14) The treated plants and control plants were placed in a greenhouse as described above and watered by sub-irrigation to prevent wash-off of the test compounds. After approximately 3 weeks, the condition of the test plants as compared with that of the untreated plants was determined visually and scored on a scale of 0 to 100 percent where 0 corresponds to no injury or growth inhibition and 100 corresponds to complete kill. […]

DIGSA = test: Postemergence foliar-applied greenhouse weed control, DIGSA; assay type: in vivo, Digitaria sanguinalis (L.) Scop.; settings: 21 DAA
Description: as §9, §10
as §3, with “chlorflurenol” for “chlorflurenol-methyl”, “chlorflurenol-methyl” for “chlorflurenol”, “diflufenzopyr” for “dilfufenzopyr”, “material)” for “material,)”
as §11, §12, §13, §14

ECHCO = test: Postemergence foliar-applied greenhouse weed control, ECHCO; assay type: in vivo, Echinochloa colona (L.) Link; settings: 21 DAA
Description: as §9, §10
as §3, with “chlorflurenol” for “chlorflurenol-methyl”, “chlorflurenol-methyl” for “chlorflurenol”, “diflufenzopyr” for “dilfufenzopyr”, “material)” for “material,)”
as §11, §12, §13, §14

IPOHE = test: Postemergence foliar-applied greenhouse weed control, IPOHE; assay type: in vivo, Ipomoea hederacea Jacq.; settings: 21 DAA
Description: as §9, §10
as §3, with “chlorflurenol” for “chlorflurenol-methyl”, “chlorflurenol-methyl” for “chlorflurenol”, “diflufenzopyr” for “dilfufenzopyr”, “material)” for “material,)”
as §11, §12, §13, §14

LEFCH = test: Postemergence foliar-applied greenhouse weed control, LEFCH; assay type: in vivo, Leptochloa chinensis (L.) Nees; settings: 21 DAA
Description: as §9, §10
as §3, with “chlorflurenol” for “chlorflurenol-methyl”, “chlorflurenol-methyl” for “chlorflurenol”, “diflufenzopyr” for “dilfufenzopyr”, “material)” for “material,)”
as §11, §12, §13, §14

## O=C(O)C1(O)c2ccccc2-c2ccc(Cl)cc21 (stereo not shown) [Chlorflurenol, reference compound]
ECHCG; 22 DAA, 275 gai/ha
  Visual Weed Control (%) Obs: 10%
ECHOR
  Visual Weed Control (%) Obs: 30%
SCPMA; 275 gai/ha
  Visual Weed Control (%) Obs: 45%
SCPMA; 550 gai/ha
  Visual Weed Control (%) Obs: 60%

## C/C(=N\NC(=O)Nc1cc(F)cc(F)c1)c1ncccc1C(=O)O [Diflufenzopyr sodium]
CYPRO; 17.5 gai/ha
  Visual Weed Control (%) Obs: 0%
CYPRO; 35 gai/ha
  Visual Weed Control (%) Obs: 0%
CYPRO; 70 gai/ha
  Visual Weed Control (%) Obs: 10%
ECHCG; 19 DAA, 17.5 gai/ha
  Visual Weed Control (%) Obs: 20%
ECHCG; 19 DAA, 35 gai/ha
  Visual Weed Control (%) Obs: 50%
ECHCG; 19 DAA, 70 gai/ha
  Visual Weed Control (%) Obs: 20%
FIMMI; 17.5 gai/ha
  Visual Weed Control (%) Obs: 50%
FIMMI; 35 gai/ha
  Visual Weed Control (%) Obs: 55%
FIMMI; 70 gai/ha
  Visual Weed Control (%) Obs: 60%

## C/C(=N\NC(=O)Nc1cc(F)cc(F)c1)c1ncccc1C(=O)O [Diflufenzopyr, 2-{(E)-1-[4-(3,5-difluorophenyl)-semicarbazono]-ethyl}nicotinic acid]
BRAPP; 8.75 gai/ha
  Visual Weed Control (%) Obs: 0%
BRAPP; 17.5 gai/ha
  Visual Weed Control (%) Obs: 40%
BRAPP; 35 gai/ha
  Visual Weed Control (%) Obs: 80%
DIGSA; 17.5 gai/ha
  Visual Weed Control (%) Obs: 10%
DIGSA; 35 gai/ha
  Visual Weed Control (%) Obs: 20%
ECHCO; 8.75 gai/ha
  Visual Weed Control (%) Obs: 30%
ECHCO; 17.5 gai/ha
  Visual Weed Control (%) Obs: 30%
ECHCO; 35 gai/ha
  Visual Weed Control (%) Obs: 40%
IPOHE; 8.75 gai/ha
  Visual Weed Control (%) Obs: 75%
IPOHE; 17.5 gai/ha
  Visual Weed Control (%) Obs: 70%
LEFCH; 8.75 gai/ha
  Visual Weed Control (%) Obs: 0%
LEFCH; 17.5 gai/ha
  Visual Weed Control (%) Obs: 10%
